Assay results published in patent US11331299B2, “Medicinal use of serrulatane diterpenes” (The University of Sydney, priority 2016, dated 2022).

Key:
CBX6 (h) chromodomain = biological target: T1, CBX6 (h) chromodomain (Homo sapiens, UniProt O95503); assay: Epigenetic binding assay, Chromodomain; conditions: read-out: % Inhibition of Control Specific Binding
T1 construct: Recognition and specificity determinants of the human cbx chromodomains; Eurofins CEREP (France), contract laboratory
T1 sequence (O95503 11-69 limits assumed): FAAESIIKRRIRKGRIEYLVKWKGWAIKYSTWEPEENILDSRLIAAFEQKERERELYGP

Deacetylase, Histone 1 = biological target: T2, Deacetylase, Histone 1 (Homo sapiens, UniProt Q13547); assay: Deacetylase, Histone 1 (PanLab); type: biochemical
T2 construct: host or cells: Insect Sf9 cells
Description: (§1) The in vitro pharmacological studies were conducted by Eurofins PanLab (Taiwan) using the parameters shown in Table 13 with respect to appropriate literature references.

G9a (h) = biological target: T3, G9a (h) (Homo sapiens, UniProt Q96KQ7); assay: Epigenetic enzyme assay, Methyltransferases (MTs); type: biochemical; conditions: for % Inhibition of Control Values / inhibition at 10 µM: 10 μM; for inhibition at 10 µM: read-out: % Inhibition of Control Values; for IC50: Table 11, inhibition/concentration-response curve
T3 sequence (Q96KQ7 1-1210): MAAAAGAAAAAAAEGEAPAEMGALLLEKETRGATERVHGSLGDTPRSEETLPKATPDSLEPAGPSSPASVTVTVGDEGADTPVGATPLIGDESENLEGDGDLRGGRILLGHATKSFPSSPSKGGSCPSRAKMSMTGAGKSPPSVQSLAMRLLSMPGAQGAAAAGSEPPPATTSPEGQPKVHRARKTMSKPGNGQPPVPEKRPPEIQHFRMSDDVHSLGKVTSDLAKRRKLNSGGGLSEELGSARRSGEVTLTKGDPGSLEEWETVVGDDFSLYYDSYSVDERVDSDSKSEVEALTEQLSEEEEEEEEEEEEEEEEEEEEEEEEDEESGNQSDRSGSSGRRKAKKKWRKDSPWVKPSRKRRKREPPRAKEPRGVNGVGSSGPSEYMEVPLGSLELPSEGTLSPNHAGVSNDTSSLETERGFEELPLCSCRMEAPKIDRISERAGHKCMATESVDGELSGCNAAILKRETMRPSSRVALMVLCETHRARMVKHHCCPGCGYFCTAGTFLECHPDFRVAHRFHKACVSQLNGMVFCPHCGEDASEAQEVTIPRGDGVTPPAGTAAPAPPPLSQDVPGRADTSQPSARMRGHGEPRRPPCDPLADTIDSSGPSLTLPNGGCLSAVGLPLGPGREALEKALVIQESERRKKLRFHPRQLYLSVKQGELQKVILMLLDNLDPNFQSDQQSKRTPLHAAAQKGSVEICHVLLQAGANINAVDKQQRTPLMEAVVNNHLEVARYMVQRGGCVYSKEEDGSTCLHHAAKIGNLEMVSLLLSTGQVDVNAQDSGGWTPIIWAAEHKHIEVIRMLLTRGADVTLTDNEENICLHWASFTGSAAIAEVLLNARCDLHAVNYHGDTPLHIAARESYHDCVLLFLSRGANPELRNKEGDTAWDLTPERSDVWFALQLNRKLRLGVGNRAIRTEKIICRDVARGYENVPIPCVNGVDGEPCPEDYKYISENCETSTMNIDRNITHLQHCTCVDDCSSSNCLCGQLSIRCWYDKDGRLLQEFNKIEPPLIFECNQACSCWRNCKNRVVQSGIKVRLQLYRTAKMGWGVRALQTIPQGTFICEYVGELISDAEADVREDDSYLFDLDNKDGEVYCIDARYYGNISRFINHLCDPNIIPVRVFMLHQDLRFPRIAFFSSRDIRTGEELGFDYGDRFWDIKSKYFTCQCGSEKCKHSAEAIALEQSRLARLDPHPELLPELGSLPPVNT

BAZ2B (h) bromodomain = biological target: T4, BAZ2B (h) bromodomain (Homo sapiens, UniProt Q9UIF8); assay: Epigenetic binding assay, Bromodomain; conditions: read-out: % Inhibition of Control Specific Binding
T4 construct: Bromodomain
T4 sequence (Q9UIF8 2060-2164 limits assumed): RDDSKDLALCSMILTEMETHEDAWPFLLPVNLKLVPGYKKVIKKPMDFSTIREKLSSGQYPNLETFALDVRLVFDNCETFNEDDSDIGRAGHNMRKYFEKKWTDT

HAT1(h) = biological target: T5, HAT1(h) (Homo sapiens, UniProt O14929); assay: Epigenetic enzyme assay, Histone acetyltransferases (HATs); type: biochemical; conditions: read-out: % Inhibition of Control Values
T5 sequence (O14929 1-419): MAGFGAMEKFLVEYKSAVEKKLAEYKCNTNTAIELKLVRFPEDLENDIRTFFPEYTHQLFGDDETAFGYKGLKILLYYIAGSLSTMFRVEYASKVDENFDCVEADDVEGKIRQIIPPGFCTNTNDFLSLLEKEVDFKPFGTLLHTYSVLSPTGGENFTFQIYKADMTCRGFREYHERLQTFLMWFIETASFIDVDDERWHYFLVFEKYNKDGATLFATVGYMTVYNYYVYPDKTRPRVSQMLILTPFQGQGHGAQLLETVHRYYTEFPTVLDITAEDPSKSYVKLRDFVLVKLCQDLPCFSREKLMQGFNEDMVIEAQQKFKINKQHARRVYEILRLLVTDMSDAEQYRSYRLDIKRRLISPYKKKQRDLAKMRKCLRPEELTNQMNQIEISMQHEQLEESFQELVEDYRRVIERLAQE

USP 10 (h) = USP 10 (h) (Homo sapiens, UniProt Q14694); assay: Epigenetic enzyme assay, Ubiquitin modifying enzymes; type: biochemical; conditions: 10 μM; read-out: % Inhibition of Control Values
Angiotensin AT2 = biological target: T6, Angiotensin AT2 (Homo sapiens, UniProt P50052); assay: Angiotensin AT2 radio ligand binding; conditions: assay year 2015, read-out: % Control Response
T6 construct: expressed in transfected cells; host or cells: CHO-K1 cells
T6 sequence (P50052 1-363): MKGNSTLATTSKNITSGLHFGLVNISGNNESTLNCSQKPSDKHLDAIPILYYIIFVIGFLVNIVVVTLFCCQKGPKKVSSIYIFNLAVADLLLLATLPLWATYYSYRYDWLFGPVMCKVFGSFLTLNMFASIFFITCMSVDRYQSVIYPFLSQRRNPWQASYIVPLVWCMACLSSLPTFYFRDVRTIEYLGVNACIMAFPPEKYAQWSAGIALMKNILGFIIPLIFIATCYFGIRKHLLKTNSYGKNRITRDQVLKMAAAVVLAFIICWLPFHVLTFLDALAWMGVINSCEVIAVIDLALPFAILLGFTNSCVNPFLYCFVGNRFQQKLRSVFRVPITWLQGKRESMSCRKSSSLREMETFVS
Description: as §1

[1] = biological target: PKBalpha/AKT1(h) (substrate histone H3 full length) (Homo sapiens, UniProt P31749); assay: Epigenetic enzyme assay, Kinases; type: biochemical; conditions: read-out: % Inhibition of Control Values
NSD1 (h) = NSD1 (h) (Homo sapiens, UniProt Q96L73); assay: Epigenetic enzyme assay, Methyltransferases (MTs); type: biochemical; conditions: for inhibition at 10 µM: read-out: % Inhibition of Control Values
PRMT1 (h) = PRMT1 (h) (Homo sapiens, UniProt Q99873); assay: Epigenetic enzyme assay, Methyltransferases (MTs); type: biochemical; conditions: read-out: % Inhibition of Control Values
PRMT1 (h), sequence (Q99873 whole entry): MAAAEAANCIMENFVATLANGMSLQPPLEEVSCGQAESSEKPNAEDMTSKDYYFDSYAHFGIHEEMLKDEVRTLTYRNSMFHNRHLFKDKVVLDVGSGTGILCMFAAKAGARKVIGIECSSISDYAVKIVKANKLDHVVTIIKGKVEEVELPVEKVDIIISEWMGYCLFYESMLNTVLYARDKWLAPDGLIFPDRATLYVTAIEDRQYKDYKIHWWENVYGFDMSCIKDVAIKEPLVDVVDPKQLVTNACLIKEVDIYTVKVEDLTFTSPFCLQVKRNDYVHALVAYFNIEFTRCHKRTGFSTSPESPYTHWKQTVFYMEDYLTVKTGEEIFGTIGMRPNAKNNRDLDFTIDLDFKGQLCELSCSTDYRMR

USP 10 (h), sequence (Q14694 whole entry): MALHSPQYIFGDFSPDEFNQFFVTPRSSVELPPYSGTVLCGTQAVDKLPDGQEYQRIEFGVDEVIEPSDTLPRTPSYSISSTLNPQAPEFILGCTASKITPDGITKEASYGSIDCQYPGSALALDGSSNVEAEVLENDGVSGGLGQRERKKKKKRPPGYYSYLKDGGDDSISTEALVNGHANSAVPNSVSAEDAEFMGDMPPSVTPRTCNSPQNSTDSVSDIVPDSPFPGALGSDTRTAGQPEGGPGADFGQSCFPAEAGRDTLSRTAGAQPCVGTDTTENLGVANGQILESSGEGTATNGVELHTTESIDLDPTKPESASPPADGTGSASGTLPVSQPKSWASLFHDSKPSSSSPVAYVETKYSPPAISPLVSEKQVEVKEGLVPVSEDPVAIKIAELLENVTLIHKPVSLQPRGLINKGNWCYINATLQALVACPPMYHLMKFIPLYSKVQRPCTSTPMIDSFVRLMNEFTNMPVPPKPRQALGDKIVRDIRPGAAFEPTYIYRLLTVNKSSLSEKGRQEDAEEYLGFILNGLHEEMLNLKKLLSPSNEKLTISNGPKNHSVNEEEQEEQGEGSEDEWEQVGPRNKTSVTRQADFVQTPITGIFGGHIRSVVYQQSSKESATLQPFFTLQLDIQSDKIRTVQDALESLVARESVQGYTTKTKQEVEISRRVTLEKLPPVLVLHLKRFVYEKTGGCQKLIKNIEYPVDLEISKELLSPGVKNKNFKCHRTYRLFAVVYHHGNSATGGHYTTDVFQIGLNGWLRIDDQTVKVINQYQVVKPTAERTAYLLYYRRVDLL
PKBalpha/AKT1(h) (substrate histone H3 full length), sequence (P31749 whole entry): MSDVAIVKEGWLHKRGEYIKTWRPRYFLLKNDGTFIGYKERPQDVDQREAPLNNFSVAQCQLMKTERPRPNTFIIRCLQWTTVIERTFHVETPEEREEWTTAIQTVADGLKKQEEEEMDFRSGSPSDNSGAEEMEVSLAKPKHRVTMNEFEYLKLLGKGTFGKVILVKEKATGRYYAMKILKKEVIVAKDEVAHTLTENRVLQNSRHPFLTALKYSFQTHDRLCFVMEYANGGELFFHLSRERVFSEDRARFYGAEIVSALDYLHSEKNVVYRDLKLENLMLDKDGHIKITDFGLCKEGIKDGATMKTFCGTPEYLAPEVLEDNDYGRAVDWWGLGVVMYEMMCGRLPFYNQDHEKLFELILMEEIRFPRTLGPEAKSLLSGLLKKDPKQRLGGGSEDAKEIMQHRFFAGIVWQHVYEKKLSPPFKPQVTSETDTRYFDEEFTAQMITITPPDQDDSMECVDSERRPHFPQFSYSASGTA
T2 sequence (Q13547 whole entry): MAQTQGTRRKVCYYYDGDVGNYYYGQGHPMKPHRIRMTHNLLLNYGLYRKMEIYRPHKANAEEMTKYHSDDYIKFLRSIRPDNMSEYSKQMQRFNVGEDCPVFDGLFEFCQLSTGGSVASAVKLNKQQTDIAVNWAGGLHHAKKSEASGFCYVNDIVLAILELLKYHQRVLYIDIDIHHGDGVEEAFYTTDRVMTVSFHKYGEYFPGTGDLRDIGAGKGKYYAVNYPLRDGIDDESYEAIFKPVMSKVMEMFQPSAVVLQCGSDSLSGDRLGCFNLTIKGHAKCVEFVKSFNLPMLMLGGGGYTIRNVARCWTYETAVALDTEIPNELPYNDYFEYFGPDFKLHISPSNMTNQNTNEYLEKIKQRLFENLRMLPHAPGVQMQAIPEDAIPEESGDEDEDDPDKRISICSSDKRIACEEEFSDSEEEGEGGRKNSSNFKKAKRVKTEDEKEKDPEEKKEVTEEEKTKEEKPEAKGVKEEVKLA
NSD1 (h), sequence (Q96L73 whole entry): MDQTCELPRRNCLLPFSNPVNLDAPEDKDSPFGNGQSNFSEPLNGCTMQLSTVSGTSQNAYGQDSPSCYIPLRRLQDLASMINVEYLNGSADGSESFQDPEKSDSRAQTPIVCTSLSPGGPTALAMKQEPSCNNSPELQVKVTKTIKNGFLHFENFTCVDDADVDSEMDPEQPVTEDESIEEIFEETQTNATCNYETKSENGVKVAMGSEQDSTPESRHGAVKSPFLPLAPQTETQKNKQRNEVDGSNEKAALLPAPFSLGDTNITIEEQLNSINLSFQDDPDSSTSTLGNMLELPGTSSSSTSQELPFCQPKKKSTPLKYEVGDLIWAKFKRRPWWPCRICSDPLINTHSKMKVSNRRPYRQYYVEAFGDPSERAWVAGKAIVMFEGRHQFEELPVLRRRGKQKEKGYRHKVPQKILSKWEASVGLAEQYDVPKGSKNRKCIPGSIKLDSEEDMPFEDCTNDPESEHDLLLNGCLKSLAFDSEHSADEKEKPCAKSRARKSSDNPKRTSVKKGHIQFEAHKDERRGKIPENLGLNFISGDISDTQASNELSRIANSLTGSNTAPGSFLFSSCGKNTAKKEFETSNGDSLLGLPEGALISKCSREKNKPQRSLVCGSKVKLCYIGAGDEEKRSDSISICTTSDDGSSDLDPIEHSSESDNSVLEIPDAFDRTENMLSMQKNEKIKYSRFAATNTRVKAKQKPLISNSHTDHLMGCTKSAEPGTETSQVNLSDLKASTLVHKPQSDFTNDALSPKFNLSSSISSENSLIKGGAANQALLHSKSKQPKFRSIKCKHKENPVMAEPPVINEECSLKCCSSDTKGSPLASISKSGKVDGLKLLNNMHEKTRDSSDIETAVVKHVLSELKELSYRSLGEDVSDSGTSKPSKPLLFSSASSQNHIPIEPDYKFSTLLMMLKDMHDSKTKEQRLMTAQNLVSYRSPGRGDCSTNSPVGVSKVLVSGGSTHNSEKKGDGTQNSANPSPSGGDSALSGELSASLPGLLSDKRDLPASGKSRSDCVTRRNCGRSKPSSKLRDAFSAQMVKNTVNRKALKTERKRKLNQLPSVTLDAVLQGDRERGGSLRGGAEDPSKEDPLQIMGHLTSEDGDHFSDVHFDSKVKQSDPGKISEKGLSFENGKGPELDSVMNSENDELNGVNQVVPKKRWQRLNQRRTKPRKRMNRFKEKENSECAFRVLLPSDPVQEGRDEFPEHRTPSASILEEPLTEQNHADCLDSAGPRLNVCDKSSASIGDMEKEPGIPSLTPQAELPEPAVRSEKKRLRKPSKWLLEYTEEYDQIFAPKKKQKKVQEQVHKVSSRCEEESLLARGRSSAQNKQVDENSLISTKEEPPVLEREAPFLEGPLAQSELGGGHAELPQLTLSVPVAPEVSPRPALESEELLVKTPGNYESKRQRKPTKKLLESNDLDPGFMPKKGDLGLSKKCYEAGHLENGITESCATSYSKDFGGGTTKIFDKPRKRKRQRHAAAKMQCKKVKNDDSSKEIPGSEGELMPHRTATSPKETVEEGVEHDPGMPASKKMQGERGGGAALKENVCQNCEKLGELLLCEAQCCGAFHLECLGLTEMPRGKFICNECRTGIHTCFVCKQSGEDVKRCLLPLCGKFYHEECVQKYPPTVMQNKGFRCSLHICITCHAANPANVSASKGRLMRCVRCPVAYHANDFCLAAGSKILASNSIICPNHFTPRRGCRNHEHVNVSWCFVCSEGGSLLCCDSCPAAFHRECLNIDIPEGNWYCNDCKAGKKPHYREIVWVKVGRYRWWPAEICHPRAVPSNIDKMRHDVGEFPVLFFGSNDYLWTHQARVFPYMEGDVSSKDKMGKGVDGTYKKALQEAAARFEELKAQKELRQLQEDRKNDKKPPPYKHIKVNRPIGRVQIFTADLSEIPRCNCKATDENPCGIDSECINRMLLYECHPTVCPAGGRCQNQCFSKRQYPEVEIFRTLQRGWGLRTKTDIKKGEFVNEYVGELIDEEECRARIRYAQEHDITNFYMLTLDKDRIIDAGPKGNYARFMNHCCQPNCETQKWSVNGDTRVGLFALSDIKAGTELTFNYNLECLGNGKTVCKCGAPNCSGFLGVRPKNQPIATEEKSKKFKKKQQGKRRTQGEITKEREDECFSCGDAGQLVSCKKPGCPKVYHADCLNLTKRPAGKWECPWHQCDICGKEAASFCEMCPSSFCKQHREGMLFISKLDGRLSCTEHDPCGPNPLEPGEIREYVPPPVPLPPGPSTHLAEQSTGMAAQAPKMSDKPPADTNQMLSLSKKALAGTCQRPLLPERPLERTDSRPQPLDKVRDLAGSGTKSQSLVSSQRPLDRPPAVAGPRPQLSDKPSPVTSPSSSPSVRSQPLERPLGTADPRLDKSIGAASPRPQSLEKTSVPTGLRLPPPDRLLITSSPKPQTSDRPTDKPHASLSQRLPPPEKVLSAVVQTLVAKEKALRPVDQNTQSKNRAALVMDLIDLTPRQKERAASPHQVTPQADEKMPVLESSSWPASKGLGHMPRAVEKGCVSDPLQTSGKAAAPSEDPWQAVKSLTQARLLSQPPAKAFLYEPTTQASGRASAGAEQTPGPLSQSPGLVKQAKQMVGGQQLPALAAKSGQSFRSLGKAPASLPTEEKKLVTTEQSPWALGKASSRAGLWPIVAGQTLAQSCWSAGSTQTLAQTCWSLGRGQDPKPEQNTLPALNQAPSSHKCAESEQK

Compound	inhibition at 10 µM (CBX6 (h) chromodomain) [%]	% control response at 10 µM (Deacetylase, Histone 1; assay year 2014) [%]	% control response at 10 µM (Deacetylase, Histone 1; assay year 2015) [%]	% Inhibition of Control Values (G9a (h))	inhibition at 10 µM (G9a (h)) [%]	IC50 (G9a (h)) [µM]	inhibition at 10 µM (BAZ2B (h) bromodomain) [%]	inhibition at 10 µM (HAT1(h)) [%]	inhibition at 10 µM (USP 10 (h)) [%]	remaining activity at 10 µM (Angiotensin AT2) [%]	inhibition at 10 µM [1] [%]	inhibition at 10 µM (NSD1 (h)) [%]	IC50 (NSD1 (h); Table 11, inhibition/concentration-response curve, read-out: IC50) [µM]	inhibition at 10 µM (PRMT1 (h)) [%]
CC(C)=CCC[C@H](CO)[C@@H]1CC[C@@H](C)c2c1cc(C)c(O)c2O [Compound 1, 7,8,18-trihydroxyserrulat-14-ene]	-1	17	-27	strong inhibitor	86	11	58	-3	7	29	-1	69	4.9	16
CC(C)=CCC[C@@H]1C(O)Oc2c(C)cc(O)c3c2[C@H]1CC[C@H]3C (some centres unmarked) [Compound 2, 5,18-epoxyserrulat-14-en-8,18-diol]	27	23	-18	weaker	64	5.4	23	3	2	18	-19	29	–	26
CC(C)=CCC[C@@H]1COc2c(C)cc(O)c3c2[C@H]1CC[C@H]3C [Compound 3, 5,18-epoxy-8-hydroxyserrulat-14-ene]	58	–	-26	weaker	49	–	21	-3	-7	9	-15	-10	–	-1
